In PMC10150354, “Linearization of the Brevicidine and Laterocidine Lipopeptides Yields Analogues That Retain Full Antibacterial Activity” (Journal of Medicinal Chemistry, 2023):
≈ marks a conversion by molar mass, not a printed value. Where a SMILES comes first, the peptide text is derived from it. [ ]: non-standard residue; d: D form. The star is where a group is joined. ξ: configuration not given here. Octanoyl(7-Me) = CC(C)CCCCCC(=O)*; Hexanoyl(4ξ-Me) = CCC(C)CCC(=O)*; dOrn = NCCC[C@@H](N)C(=O)O; Orn = NCCC[C@H](N)C(=O)O

Assays:
S. aureus USA300 = type: cell-based, Staphylococcus aureus; details: microbroth dilution per CLSI, MHB, 18 h at 37 °C, visual inspection, three technical replicates
Outline: (§1)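 CLSI broth microdilution in MHB, polypropylene plates; log-phase bacteria (OD600 ~0.5, grown in TSB, with kanamycin for the E. coli ATCC 25922 MCR-1 strain) added at 2 × 10^5 CFU/mL. Read visually after 18 h at 37 °C with shaking; MIC = lowest concentration preventing visible growth, three technical replicates.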

P. aeruginosa PAO1 = type: cell-based, Pseudomonas aeruginosa; details: microbroth dilution per CLSI, MHB, 18 h at 37 °C, visual inspection, three technical replicates
Outline: as §1

K. pneumoniae ATCC 13883 = type: cell-based, Klebsiella pneumoniae; details: microbroth dilution per CLSI, MHB, 18 h at 37 °C, visual inspection, three technical replicates
Outline: as §1

E. coli ATCC 25922 = type: cell-based, Escherichia coli; details: for Antibacterial activity (MIC) E. coli ATCC 25922: microbroth dilution per CLSI, MHB, 18 h at 37 °C, visual inspection, three technical replicates; for MIC (µg/mL) against E. coli (ATCC 25922): (Supplement 2)
Outline: as §1

E. coli (MCR-1) = type: cell-based, Escherichia coli; details: microbroth dilution per CLSI, MHB, 18 h at 37 °C, visual inspection, three technical replicates, E. coli 25922 carrying mcr-1
Outline: as §1

A. baumannii ATCC 17961 = type: cell-based, Acinetobacter baumannii; details: microbroth dilution per CLSI, MHB, 18 h at 37 °C, visual inspection, three technical replicates
Outline: as §1

CCC(C)CCC(=O)N[C@H](CC(N)=O)C(=O)N[C@H](Cc1ccc(O)cc1)C(=O)N[C@H](Cc1c[nH]c2ccccc12)C(=O)N[C@H](CCCN)C(=O)N[C@@H](CCCN)C(=O)NCC(=O)N[C@H](CCCN)C(=O)N[C@@H](Cc1c[nH]c2ccccc12)C(=O)N[C@H](C(=O)N[C@H](C(=O)NCC(N)=O)[C@@H](C)CC)[C@@H](C)O (some centres unmarked) [Δ12LB-NH2 (9)] ({Hexanoyl(4ξ-Me)}-[dN][dY][dW][dOrn][Orn]G[dOrn]WTIG-NH2)
Antibacterial activity (MIC) S. aureus USA300 (S. aureus USA300): >32 µg/mL | Antibacterial activity (MIC) P. aeruginosa PAO1 (P. aeruginosa PAO1): 4 µg/mL | Antibacterial activity (MIC) K. pneumoniae ATCC 13883 (K. pneumoniae ATCC 13883): 8 µg/mL | Antibacterial activity (MIC) E. coli ATCC 25922 (E. coli ATCC 25922): 8 µg/mL | Antibacterial activity (MIC) E. coli (MCR-1) (E. coli (MCR-1)): 16 µg/mL | Antibacterial activity (MIC) A. baumannii ATCC 17961 (A. baumannii ATCC 17961): 8 µg/mL

CCC(C)CCC(=O)N[C@H](CC(N)=O)C(=O)N[C@H](Cc1ccc(O)cc1)C(=O)N[C@H](Cc1c[nH]c2ccccc12)C(=O)N[C@H](CCCN)C(=O)N[C@@H](CCCN)C(=O)NCC(=O)N[C@H](CCCN)C(=O)N[C@@H](Cc1c[nH]c2ccccc12)C(=O)N[C@@H](CC(C)C)C(=O)N[C@H](C(=O)NCC(N)=O)[C@@H](C)CC (some centres unmarked) [Δ12LB (Leu9)-NH2 (53)] ({Hexanoyl(4ξ-Me)}-[dN][dY][dW][dOrn][Orn]G[dOrn]WLIG-NH2)
Antibacterial activity (MIC) S. aureus USA300 (S. aureus USA300): >32 µg/mL | Antibacterial activity (MIC) P. aeruginosa PAO1 (P. aeruginosa PAO1): 8 µg/mL | Antibacterial activity (MIC) K. pneumoniae ATCC 13883 (K. pneumoniae ATCC 13883): 4 µg/mL | MIC (µg/mL) against E. coli (ATCC 25922) (E. coli ATCC 25922): 8 µg/mL (≈ 5.47 µM) | Antibacterial activity (MIC) E. coli ATCC 25922 (E. coli ATCC 25922): 4 µg/mL | Antibacterial activity (MIC) E. coli (MCR-1) (E. coli (MCR-1)): 4 µg/mL | Antibacterial activity (MIC) A. baumannii ATCC 17961 (A. baumannii ATCC 17961): 4 µg/mL

CC(C)CCCCCC(=O)N[C@H](CO)C(=O)N[C@H](Cc1ccc(O)cc1)C(=O)N[C@H](Cc1c[nH]c2ccccc12)C(=O)N[C@H](CCCN)C(=O)N[C@@H](CCCN)C(=O)NCC(=O)N[C@H](CCCN)C(=O)N[C@@H](Cc1c[nH]c2ccccc12)C(=O)N[C@H](C(=O)N[C@@H](C)C(=O)N[C@@H](CC(N)=O)C(=O)NCC(=O)NCC(N)=O)[C@@H](C)O [LL(Ala10)-NH2 (38)] ({Octanoyl(7-Me)}-[dS][dY][dW][dOrn][Orn]G[dOrn]WTANGG-NH2)
Antibacterial activity (MIC) S. aureus USA300 (S. aureus USA300): >32 µg/mL | Antibacterial activity (MIC) P. aeruginosa PAO1 (P. aeruginosa PAO1): 16 µg/mL | Antibacterial activity (MIC) K. pneumoniae ATCC 13883 (K. pneumoniae ATCC 13883): >32 µg/mL | Antibacterial activity (MIC) E. coli ATCC 25922 (E. coli ATCC 25922): >32 µg/mL | Antibacterial activity (MIC) E. coli (MCR-1) (E. coli (MCR-1)): >32 µg/mL | Antibacterial activity (MIC) A. baumannii ATCC 17961 (A. baumannii ATCC 17961): >32 µg/mL

CC[C@H](C)[C@H](NC(=O)[C@@H](NC(=O)[C@H](Cc1c[nH]c2ccccc12)NC(=O)[C@@H](CCCN)NC(=O)CNC(=O)[C@H](CCCN)NC(=O)[C@@H](C)NC(=O)[C@@H](Cc1c[nH]c2ccccc12)NC(=O)[C@@H](Cc1ccc(O)cc1)NC(=O)[C@@H](CO)NC(=O)CCCCCC(C)C)[C@@H](C)O)C(=O)N[C@@H](CC(N)=O)C(=O)NCC(=O)NCC(N)=O [LL(D-Ala4)-NH2 (32)] ({Octanoyl(7-Me)}-[dS][dY][dW][dA][Orn]G[dOrn]WTINGG-NH2)
Antibacterial activity (MIC) S. aureus USA300 (S. aureus USA300): >32 µg/mL | Antibacterial activity (MIC) P. aeruginosa PAO1 (P. aeruginosa PAO1): >32 µg/mL | Antibacterial activity (MIC) K. pneumoniae ATCC 13883 (K. pneumoniae ATCC 13883): >32 µg/mL | Antibacterial activity (MIC) E. coli ATCC 25922 (E. coli ATCC 25922): >32 µg/mL | Antibacterial activity (MIC) E. coli (MCR-1) (E. coli (MCR-1)): >32 µg/mL | Antibacterial activity (MIC) A. baumannii ATCC 17961 (A. baumannii ATCC 17961): 32 µg/mL

CC[C@H](C)[C@H](NC(=O)[C@H](CC(N)=O)NC(=O)[C@H](Cc1c[nH]c2ccccc12)NC(=O)[C@@H](CCCN)NC(=O)CNC(=O)[C@H](CCCN)NC(=O)[C@@H](CCCN)NC(=O)[C@@H](Cc1c[nH]c2ccccc12)NC(=O)[C@@H](Cc1ccc(O)cc1)NC(=O)[C@@H](CO)NC(=O)CCCCCC(C)C)C(=O)N[C@@H](CC(N)=O)C(=O)NCC(=O)NCC(N)=O [LL(Asn9)-NH2 (47)] ({Octanoyl(7-Me)}-[dS][dY][dW][dOrn][Orn]G[dOrn]WNINGG-NH2)
Antibacterial activity (MIC) S. aureus USA300 (S. aureus USA300): >32 µg/mL | Antibacterial activity (MIC) P. aeruginosa PAO1 (P. aeruginosa PAO1): 8 µg/mL | Antibacterial activity (MIC) K. pneumoniae ATCC 13883 (K. pneumoniae ATCC 13883): 8 to 16 µg/mL | MIC (µg/mL) against E. coli (ATCC 25922) (E. coli ATCC 25922): 8 µg/mL (≈ 4.89 µM) | Antibacterial activity (MIC) E. coli ATCC 25922 (E. coli ATCC 25922): 8 µg/mL | Antibacterial activity (MIC) E. coli (MCR-1) (E. coli (MCR-1)): 8 µg/mL | Antibacterial activity (MIC) A. baumannii ATCC 17961 (A. baumannii ATCC 17961): 16 µg/mL
